The target of one series is SNHG14. The settings on record: ASO, Human Neuronal Cell.
The target of the next series is SOD1. The settings on record: ASO.

Several values for one entry are separate records, joined by “and”; a condition that tells them apart may be missing. Equal values may be shown once. After the bases stand the sugars from the 5' end (letter, count) and the backbone: PS all phosphorothioate, else s phosphorothioate and o phosphodiester by linkage. Methylation of C is not given here. e = 2'-O-(2-methoxyethyl) (MOE); l = locked nucleic acid (LNA); k = constrained ethyl (cEt); d = 2'-deoxy (DNA)

As for “CTCCAACATAGATCCTC (sugars l3 d11 l3, PS)”, the values for the target mRNA inhibition in the series with SNHG14 (0.2 µM) and with SNHG14 (1 µM) were 52% and 60%, respectively.
In the series with SNHG14 (7.5 µM), “TTCTGTATACACCATCC (sugars l2 d11 l1 d1 l2, PS)” displayed a target mRNA inhibition of 56%.
Same read-out and setting: the result for “AAATCTCAACTACCATTTTT (sugars llldldlddddddddddlll, PS)” reads 34%.
The same measure, in the same setting: the result for “TTGATTCAATTCCCTTA (sugars ldllddddddddlddll, PS)” reads 62%; that for “GCAACATTATTAACCACCT (sugars ldddddddddddldlddll, PS)”, 41%; that for “ATCTTTCCATTTATTTCCAT (sugars ldddldldddddddldddll, PS)”, 30%.
Turning to “TCATTTCATATTACTAAC (sugars l4 d12 l2, PS)”, the target mRNA inhibition with SNHG14 (0.2 µM) turned out to be 13%; in the series with SNHG14 (1 µM) it was 32%.
Turning to “AGCAACATTATTAACCACC (sugars lddldddddddddlldlll, PS)”, the target mRNA inhibition with SNHG14 (7.5 µM) was 50%.
The same measure, in the same setting: the result for “TTCTACTATACTTTCCTCT (sugars ldddldddddddldlddll, PS)” reads 58%; that for “CAACATTATTAACCACCTTA (sugars ldlldddddddddddlddll, PS)”, 57%; that for “CTGTATACACCATCCCA (sugars ldlddddddddddldll, PS)”, 62%.
For CCTTTCCAATGAATCT (sugars l3 d10 l3, PS), the target mRNA inhibition turned out to be 45% in the series with SNHG14 (0.2 µM) and 60% with SNHG14 (1 µM).
“ATTGATTCAATTCCCTT (sugars lddlddddddddlldll, PS)”: the target mRNA inhibition with SNHG14 (7.5 µM) was 61%.
Take “TTCCTCTGCTTATAACT (sugars l3 d12 l2, PS)”: the target mRNA inhibition with SNHG14 (0.2 µM) was found to be 50%; in the series with SNHG14 (1 µM), 61%.
“TACTCTGCAATACACC (sugars l1 d3 l1 d9 l2, PS)” came in with a target mRNA inhibition in the series with SNHG14 (7.5 µM) of 52%.
The same measure, in the same setting: the result for “AGCTTTTAACCAGAGTG (sugars l2 d11 l4, PS)” reads 78%.
In the case of “TTCTGTATACACCATCCC (sugars l1 d12 l1 d2 l2, PS)”, the target mRNA inhibition in the series with SNHG14 (7.5 µM) amounted to 53%.
Take “ATTTCATATTACTAACTA (sugars l2 d12 l4, PS)”: the target mRNA inhibition was determined as 3% in the series with SNHG14 (0.2 µM) and 20% with SNHG14 (1 µM).
The sequence “TTCTACTATACTTTCCTCT (sugars ldddddddddddlddldll, PS)” came in with a target mRNA inhibition with SNHG14 (7.5 µM) of 54%.
“CAACATTATTAACCACCTTA (sugars l1 d13 l3 d1 l2, PS)” came in with a target mRNA inhibition in the series with SNHG14 (7.5 µM) of 47%.
Still for that read-out and setting: for “TATACCTTTCTTTAACCCTT (sugars l2 d4 l1 d11 l2, PS)” the value was 51%; for “TCTTTCCATTTATTTCCAT (sugars lddldldddddddldldll, PS)”, 37%.
Same read-out and setting: for GCTTTTAACCAGAGTG (sugars l4 d10 l2, PS) the value was 72%; for “AATTTTTTTCTTACTATCTT (sugars lldldlddddddddlddlll, PS)”, 43%.
Take CCTTAGTATTACAATT (sugars l4 d10 l2, PS): the target mRNA inhibition turned out to be 58% in the series with SNHG14 (0.2 µM) and 71% with SNHG14 (1 µM).
The sequence “AGATCATTCTCAACAATTA (sugars ldlddldddddddddllll, PS)” yielded a target mRNA inhibition with SNHG14 (7.5 µM) of 50%.
As for “TCTCTACAACAGTCCCA (sugars l2 d13 l2, PS)”, the target mRNA inhibition with SNHG14 (0.2 µM) was 44%; with SNHG14 (1 µM), 55%.
Consider “GCACATTCTTTCTATACCT (sugars ldldlddddddddddddll, PS)”, for which the target mRNA inhibition in the series with SNHG14 (7.5 µM) amounted to 57%.
In the case of “ATTTTTTTCTTACTATCTTC (sugars lldlddddddddddddldll, PS)”, the target mRNA inhibition with SNHG14 (7.5 µM) was 50%.
With “ACTGTTTATACCCTTTCC (sugars lddlddddddddddldll, PS)”, the target mRNA inhibition with SNHG14 (7.5 µM) was found to be 62%.
Regarding CAACTATTATCTTCTT (sugars l2 d10 l4, PS), the figures for the target mRNA inhibition in the series with SNHG14 (0.2 µM) and with SNHG14 (1 µM) were 42% and 61%, respectively.
Sequence “TTTTTATACCTTTCTTTAAC (sugars l2 d12 l3 d1 l2, PS)” showed a target mRNA inhibition in the series with SNHG14 (7.5 µM) of 62%.
In the series with SNHG14 (7.5 µM), “TTTTAACCAGAGTGGCATC (sugars l4 d13 l2, PS)” displayed a target mRNA inhibition of 45%.
CAACTCTATGACTACC (sugars l2 d10 l4, PS): the values for the target mRNA inhibition with SNHG14 (0.2 µM) and with SNHG14 (1 µM) were 46% and 36%, respectively.
Regarding “GCTTTTAACCAGAGTGGC (sugars l1 d14 l3, PS)”, the target mRNA inhibition with SNHG14 (7.5 µM) came out at 63%.
Still for that read-out and setting: for “AGATCATTCTCAACAATT (sugars ldldlldddddddlllll, PS)” the value was 32%.
Consider ACATTATTAACCACCT (sugars l3 d10 l3, PS), for which the figures for the target mRNA inhibition in the series with SNHG14 (0.2 µM) and with SNHG14 (1 µM) were 62% and 64%, respectively.
Take “AGTTCTACTATACTTTCC (sugars lddddldddddddlddll, PS)”: in the series with SNHG14 (7.5 µM), the target mRNA inhibition stood at 60%.
On to “GAATTCTTTATTCCTCC (sugars l2 d11 l4, PS)”, for which the results for the target mRNA inhibition with SNHG14 (0.2 µM) and in the series with SNHG14 (1 µM) were 45% and 41%, respectively.
For the sequence “TTTATACCTTTCTTTAACCC (sugars lddddddddddddldlddll, PS)”, in the series with SNHG14 (7.5 µM), the target mRNA inhibition is 52%.
Take “ATACATTTCTACAGCT (sugars kekeddddddddekek, linkages s1 o3 s8 o1 s2)”: the target mRNA inhibition with SOD1 (A431, 0.12 µM) is 15%; in the series with SOD1 (A431, 0.6 µM) it was 14%; with SOD1 (A431, 3 µM) it was 16%; with SOD1 (A431, 15 µM), 52%; with SOD1 (HepG2, 0.222 µM), 55%; in the series with SOD1 (HepG2, 0.667 µM), 73%. Further, the target mRNA inhibition in the series with SOD1 (HepG2, 2 µM) is 89%; in the series with SOD1 (HepG2, 6 µM), 95%.
Turning to “CCAACATGCCTCTCTTC (sugars e3 k2 d7 k2 e3, PS)”, the target mRNA inhibition with SOD1 (HepG2, 3 µM) was 0%.
Take “CTCGCTAGGCCACGCCGAGG (sugars e5 d10 e5, PS)”: the target mRNA inhibition with SOD1 (HepG2, 4 µM) came out at 46%.
In turn, “AGTTTAATACCCATCTG (sugars e3 k2 d7 k2 e3, PS)” came in with a target mRNA inhibition with SOD1 (HepG2, 3 µM) of 10%.
The same measure, in the same setting: the result for “ACAAGTTTAATACCCAT (sugars e3 k2 d7 k2 e3, PS)” reads 23%; that for “GAGGATTAAAGTGAGGA (sugars e3 k2 d7 k2 e3, PS)”, 40%.
“GGGCGATCCCAATTACA (sugars e2 k2 d9 k2 e2, PS)” showed a target mRNA inhibition in the series with SOD1 (HepG2, 4 µM) of 30%.
Sequence “TCTGCTTTTTCATGGAC (sugars e3 k2 d7 k2 e3, PS)” yielded a target mRNA inhibition in the series with SOD1 (HepG2, 3 µM) of 55%.
“CTACAGGTACTTTAAAG (sugars e2 k2 d9 k2 e2, PS)”: the target mRNA inhibition with SOD1 (HepG2, 5 µM) came out at 16%.
For the sequence “CTTCACTGGTCCATTAC (sugars e3 k2 d7 k2 e3, PS)”, the target mRNA inhibition with SOD1 (HepG2, 3 µM) was found to be 11%.
Take “GTGATTTAAGTCTGGCA (sugars e2 k2 d8 k2 e3, PS)”: the target mRNA inhibition in the series with SOD1 (HepG2, 5 µM) was found to be 54%.
Sequence “GATCATAAATCAGTTTC (sugars e2 k2 d9 k2 e2, PS)” showed a target mRNA inhibition in the series with SOD1 (HepG2, 5 µM) of 38%.
Sequence “CGCTGCAGGAGACTACGACG (sugars e5 d10 e5, PS)” came in with a target mRNA inhibition in the series with SOD1 (HepG2, 4 µM) of 23%.
For the sequence “TTATTGGGCGATCCCAA (sugars e3 k2 d7 k2 e3, PS)”, the target mRNA inhibition with SOD1 (HepG2, 3 µM) was determined as 15%.
“CTTCCAAGTGATCATAA (sugars e2 k2 d9 k2 e2, PS)” showed a target mRNA inhibition with SOD1 (HepG2, 5 µM) of 54%.
With “CAGCTAGCAGGATAACA (sugars e3 k2 d7 k2 e3, PS)”, the target mRNA inhibition in the series with SOD1 (HepG2, 3 µM) was 21%.
In the case of “TAACTGAGTTTTATAAAACT (sugars e5 d10 e5, PS)”, the target mRNA inhibition in the series with SOD1 (HepG2, 5 µM) worked out at 0%.
Take “TTTCCTTCTGCTCGAAA (sugars e3 k2 d7 k2 e3, PS)”: the target mRNA inhibition in the series with SOD1 (HepG2, 3 µM) is 6%.
“AGCCTCATAATAAGTGC (sugars e2 k2 d8 k2 e3, PS)” returned a target mRNA inhibition in the series with SOD1 (HepG2, 5 µM) of 16%.
“ATAGCCTCATAATAAGTGCC (sugars e5 d10 e5, PS)” showed a target mRNA inhibition in the series with SOD1 (HepG2, 5 µM) of 19%.
Sequence “GCGATCCCAATTACACC (sugars e2 k2 d8 k2 e3, PS)” came in with a target mRNA inhibition with SOD1 (HepG2, 4 µM) of 31%.
Regarding “TTTTAAGATTACAGTGTTTA (sugars e5 d10 e5, PS)”, the target mRNA inhibition with SOD1 (HepG2, 5 µM) came to 13%.
“TACATTTCTACAGCTA (sugars ekddddddddekekee, linkages s1 o1 s8 o3 s2)”: the target mRNA inhibition in the series with SOD1 (A431, 0.12 µM) came out at 37%; with SOD1 (A431, 0.6 µM) it was 0%; with SOD1 (A431, 3 µM), 22%; in the series with SOD1 (A431, 15 µM), 12%; with SOD1 (HepG2, 0.222 µM) it was 36%; in the series with SOD1 (HepG2, 0.667 µM), 69%. Also, the target mRNA inhibition in the series with SOD1 (HepG2, 2 µM) stood at 83%; with SOD1 (HepG2, 6 µM), 95%.
For the sequence “CTCACTACAGGTACTTT (sugars e2 k2 d9 k2 e2, PS)”, the target mRNA inhibition with SOD1 (HepG2, 5 µM) was found to be 54%.
Turning to “GAATGTTTATTGGGCGA (sugars e2 k2 d9 k2 e2, PS)”, the target mRNA inhibition in the series with SOD1 (HepG2, 4 µM) came out at 65%.
On to “AGCCTCATAATAAGTGC (sugars e2 k2 d9 k2 e2, PS)”, for which the target mRNA inhibition with SOD1 (HepG2, 5 µM) stood at 11%.
Regarding “AGGTCATTGAAACAGAC (sugars e2 k2 d9 k2 e2, PS)”, in the series with SOD1 (HepG2, 5 µM), the target mRNA inhibition worked out at 44%.
The same measure, in the same setting: the result for “TCCTTTGGCCCACCGTGTTT (sugars e5 d10 e5, PS)” reads 30% and 23%; that for “GTGTGCGGCCAATGATGCAA (sugars e5 d10 e5, PS)”, 15%.
As to “ATCCAAGGGAATGTTTA (sugars e2 k2 d8 k2 e3, PS)”, in the series with SOD1 (HepG2, 4 µM), the target mRNA inhibition is 35%.
In the series with SOD1 (HepG2, 3 µM), “GAGATCACAGAATCTTC (sugars e3 k2 d7 k2 e3, PS)” yielded a target mRNA inhibition of 13%.
Regarding “GACAAGTTTAATACCCA (sugars e2 k2 d9 k2 e2, PS)”, the target mRNA inhibition with SOD1 (HepG2, 5 µM) was found to be 59%.
With “CATAATAAGTGCCATAC (sugars e2 k2 d8 k2 e3, PS)”, in the series with SOD1 (HepG2, 5 µM), the target mRNA inhibition is 32%.
With “TTAAGTCTGGCAAAATA (sugars e2 k2 d8 k2 e3, PS)”, the target mRNA inhibition in the series with SOD1 (HepG2, 5 µM) worked out at 27%.
Sequence “GGCGATCCCAATTACAC (sugars e3 k2 d7 k2 e3, PS)” gave a target mRNA inhibition with SOD1 (HepG2, 3 µM) of 9%.
In turn, “GACTACATCCAAGGGAA (sugars e2 k2 d8 k2 e3, PS)” displayed a target mRNA inhibition with SOD1 (HepG2, 4 µM) of 50%.

(Values after the OligoGym collection.)
